Data on 89 compounds can be found in a melting point compilation (Tetko et al.; mined from patent text by program, amines drawn as free bases though some values may be those of a salt).

By melting point is commonly meant the temperature, or range, at which the solid turns liquid.

On to `CC(C)(C)OC(=O)NCCCn1cnc2c(N)nc3ccccc3c21`, for which the melting point was 196 to 198 °C.

Compound `CC1(C)Oc2cc3nonc3cc2C(N2CCC(O)C2=O)C1O` (centres undefined) showed a melting point of 195 to 196 °C.

On to `COC(=O)C1=C(C)Nc2ccccc2SC1c1ccccc1C(F)(F)F` (centres undefined), for which the melting point is 165 to 166 °C.

In the case of `N#Cc1ccc(C=NO)cc1`, the melting point fell in the range of 174 to 176 °C.

Turning to `O=C(c1cc2ccccc2[nH]1)C1CSC(c2cccnc2)N1` (centres undefined), the melting point is 142 to 144 °C.

Turning to `Cc1cc2nc(-c3cc(C(F)(F)F)nn3-c3ccc(S(C)(=O)=O)cc3)sc2cc1F`, the melting point was 193 to 194 °C.

Turning to `CCOC(=O)c1sc2ncccc2c1Br`, the melting point is 100 to 102 °C.

In the case of `C=CCSc1nc(O)ns1`, the melting point came to 84 °C.

For the compound `COC(=O)C1CCc2cc(OCc3nc(-c4ccccc4)oc3C)ccc2C1O` (centres undefined), the melting point is 146 to 147 °C.

As for `N#Cc1nn(-c2c(Cl)cc(C(F)(F)F)cc2Cl)c(-n2cncn2)c1S(=O)(=O)C(F)(F)F`, the melting point fell in the range of 172 to 174 °C.

`CC(C)c1ccc2c(c1)c(S(=O)(=O)c1ccccc1)c(CC(C)(C)C(=O)O)n2Cc1ccc(Cl)cc1` came in with a melting point of 169 to 172 °C.

Turning to `COc1cc(CO)ccc1OCc1nc(-c2cccc([N+](=O)[O-])c2)oc1C`, the melting point lay in the range of 134 to 135 °C.

`CC(=O)c1nc2ccc(S(=O)(=O)c3ccccc3)cc2cc1O` yielded a melting point of 179 to 180 °C.

`O=C(OC1CCC1)c1ccc(O)c(C(=O)O)c1` registered a melting point of 200 °C.

Regarding `CCNC(=O)C(=O)[C@H](Cc1ccccc1)NC(=O)[C@H](CC(C)C)NC(=O)OC1CCOCC1`, the melting point is 140 to 142 °C.

As for `CC(C)c1[nH]nc2c1C(=O)c1c(NC(=O)CN3CCC(C(N)=O)CC3)cccc1-2`, the melting point was in the range of 224 to 225 °C.

`CCN(c1ccc(N2CCN(c3ccc(OC)cc3)CC2)cc1)c1nc(-c2ccccc2)cs1` registered a melting point of 224 °C.

`CCCCN(C(=O)CCc1ccc(OCCOC)cc1Oc1ncc(C(F)(F)F)cc1Cl)S(N)(=O)=O` came in with a melting point of 102 to 103 °C.

Turning to `Nc1ccc(CCC(=O)N2CCCCC2)cc1[N+](=O)[O-]`, the melting point is 140 to 141 °C.

On to `CC(C#CCOc1cccc(Oc2ccccc2)c1)N(O)C(N)=O` (centres undefined), for which the melting point was in the range of 98 to 100 °C.

On to `CCOC(=O)c1c(C)cc2c(c1C)c(=O)n(-c1ccccc1Cl)c(=O)n2CCCN(C)C`, for which the melting point lay within 155 to 156 °C.

Compound `O=[N+]([O-])c1cc2ccc(C(Cl)(Cl)Cl)nc2c2nc(C(Cl)(Cl)Cl)ccc12` yielded a melting point of 228 to 231 °C.

`CN(NC(=O)c1ccccc1C(=O)O)C(=S)Nc1ccccc1`: the melting point fell in the range of 155 to 156 °C.

Compound `Cn1c(=O)c(C(=O)O)c(-c2ccccc2Cl)c2cccnc21` showed a melting point of 178 to 180 °C.

Compound `C=CC(=O)OCCCCCCOc1ccc(C(=O)O)cc1` came in with a melting point of 139 °C.

`OCCOCC(O)c1ccc2sccc2c1` (centres undefined) yielded a melting point of 119 to 120 °C.

Regarding `COc1cc2cnn(CCO)c(=O)c2cc1OC`, the melting point is 174 to 176 °C.

`Cc1oc(-c2ccccc2)nc1COc1ccccc1CO` displayed a melting point of 155 to 156 °C.

For the compound `O=C1NCCc2c(-c3cccs3)[nH]c3cccc1c23`, the melting point lay within 220 to 222 °C.

Regarding `Brc1cccc2[nH]cc(Cc3cccnc3)c12`, the melting point is 173 to 174 °C.

The compound `O=C(O)CCc1cc2nc(C(F)(F)F)ccc2n1S(=O)(=O)c1cccc2ccccc12` had a melting point of 116 to 117 °C.

Compound `COc1cc(C2(C=O)C=CC=CC2)ccc1OCCCN1CCC(c2noc3cc(F)ccc23)CC1` (centres undefined) came in with a melting point of 128 to 130 °C.

Compound `CCNC(=O)c1cnc(SC)nc1Nc1ccc2[nH]ncc2c1` registered a melting point of 252 to 254 °C.

Compound `ON=C1COc2cc(OCc3c(F)cccc3F)ccc21` registered a melting point of 166 to 172 °C.

Consider `Nc1ccnn1-c1c(Cl)cc(C(F)(F)F)c(Cl)c1Cl`, for which the melting point was in the range of 109 to 114 °C.

In turn, `Nc1ccc(CN2CCN(c3ccc(F)cc3)CC2)cc1` displayed a melting point of 130 to 132 °C.

In turn, `CNC(=O)NN(CC(=O)OC)c1cccc(I)c1` gave a melting point of 150 °C.

`NNC(=O)Cc1cccc(OCCN2CCC(Cc3ccccc3)CC2)c1` returned a melting point of 89 to 91 °C.

`CCOC(=O)c1cc(=O)c2c(OCCOc3ccc4c(c3)OCO4)cccc2o1`: the melting point was 161 to 162 °C.

For `CC1(C)CCCC=C1c1ccc(C(=O)N2Cc3cccn3Cc3ccccc32)cc1`, the melting point was 118 °C.

`CC(C)(CO)NS(=O)(=O)c1cc(NC(=O)c2cnn3c(C(F)(F)F)cc(-c4ccc(Cl)cc4)nc23)c(Cl)s1` came in with a melting point of 272 °C.

For `CC1(C)C=C(c2ccccn2)c2cc(Cl)ccc2OC1`, the melting point came out at 100 °C.

In the case of `COc1ccc(C2(C#Cc3ccccc3)CCCC(=O)C2)cc1OC1CCCC1` (centres undefined), the melting point lay in the range of 90 to 91 °C.

Compound `O=C(NCCc1ccccc1)c1cc2c(cn1)[nH]c1ccccc12` returned a melting point of 297 to 298 °C.

For the compound `CC12CCC(C1)C1(C)Oc3ccc(C(O)c4ccc(CO)cc4)cc3C21C` (centres undefined), the melting point lay within 113 to 115 °C.

As to `CCOC(=O)CCCOc1ccc(C=Cc2ccncc2)cc1`, the melting point is 83 to 85 °C.

In turn, `CC1(C)Cc2cccc(OCC3CO3)c2O1` (centres undefined) came in with a melting point of 51 to 52 °C.

As for `CC(C)(C)[C@H]1CC[C@H](Nc2ncc(CCc3cccnc3)c3ccccc23)CC1`, the melting point lay within 124 to 125 °C.

The compound `CC(C)CCC1=Cc2c(F)cc(F)cc2N(C)C1C` (centres undefined) gave a melting point of 154 to 155 °C.

Compound `O=C(C#Cc1ccc(CCN2CCCC2)cc1)Nc1ccc(-c2ccccc2)cc1` showed a melting point of 180 to 189 °C.

For the compound `CC(c1oc2ccccc2c(=O)c1-c1cccc(F)c1)n1nc(-c2ccc(CN)s2)c2c(N)ncnc21` (centres undefined), the melting point lay in the range of 275 to 278 °C.

On to `CC12CCC(=O)C=C1CCC1C2CCC2(C)C1CCC2(O)C(N)=O` (centres undefined), for which the melting point fell in the range of 233 to 234 °C.

`CN1CC(C(=O)COC(=O)c2cccnc2)CC2c3cccc4[nH]cc(c34)CC21` (centres undefined) registered a melting point of 172 to 174 °C.

For the compound `CC(Oc1ccc(Oc2ccc3ccc(Br)cc3n2)cc1)C(=O)NCC(=O)O` (centres undefined), the melting point is 157 to 159 °C.

Turning to `COc1ccc(CC(=O)NCCc2ccccc2)cc1OC`, the melting point was in the range of 123 to 124 °C.

Regarding `CC[C@H](C1CC1)n1cc(Cl)nc(N2CCc3cc(Cl)cc(Cl)c32)c1=O`, the melting point was 157 to 159 °C.

Compound `COc1ccc2cc([C@H](C)C(=O)OCC3(CO[N+](=O)[O-])COCOC3)ccc2c1` returned a melting point of 98 °C.

`NCCCCn1cnc2c(N)ncnc21` came in with a melting point of 62 to 64 °C.

Take `Cc1cc(-c2ccc(OCc3ccncc3)cc2)cc2ccc(=O)[nH]c12`: the melting point was in the range of 270 to 274 °C.

As for `O=C(c1cccnc1)N1CCC(c2ccc(Cl)cc2)=N1`, the melting point fell in the range of 125 to 126 °C.

As to `CCOC(=O)c1cc(O)c(-c2ccccc2)c([N+](=O)[O-])c1`, the melting point fell in the range of 128 to 130 °C.

`CCOCc1nc2c(N)nc3ccccc3c2n1CC1(OCCS(C)(=O)=O)CCCC1`: the melting point lay in the range of 163 to 165 °C.

For the compound `CCC[C@](CCO)(CCc1ccccc1)OCOc1ccc(-c2ccccc2)cc1`, the melting point is 49 to 53 °C.

The compound `CC1Cc2ccccc2C(=O)C1n1ccnc1` (centres undefined) gave a melting point of 153 to 155 °C.

On to `O=C1NCN(c2ccc(Br)cc2)C12CCN(C1C=CC(c3ccc(F)cc3)(c3ccc(F)cc3)CC1)CC2` (centres undefined), for which the melting point lay in the range of 219 to 221 °C.

`Cc1cc(=O)[nH]c(=O)n1Cc1ccccc1` registered a melting point of 228 to 230 °C.

`CCN1Cc2ccccc2C(=O)c2cc(CC(=O)OC)ccc21` had a melting point of 116 to 119 °C.

Regarding `OCCCN1CCC(c2ccccc2)(c2ccccc2)CC1`, the melting point came to 97 °C.

As for `CCOC(=O)CC(NC(=O)c1ccc(C)cc1)C(=O)c1ccco1` (centres undefined), the melting point lay in the range of 83.5 to 84.5 °C.

`Cc1ccc(S(=O)(=O)OCC2CCC=CO2)cc1` (centres undefined): the melting point was 45 to 46 °C.

Regarding `NS(=O)(=O)c1ccc(-c2cccc(-c3nc(-c4ccc(C(F)(F)F)cc4)cc(C(F)(F)F)n3)c2)s1`, the melting point came out at 204 °C.

Turning to `O=C(COc1ccc(CCNCC(O)COc2ccccc2)cc1)NO` (centres undefined), the melting point was 126 to 128 °C.

For `O=C(O)c1cn(Cc2c(F)cccc2Cl)nn1`, the melting point was in the range of 274 to 276 °C.

`CC1(C)C2CC[C@]1(C)C(=O)C(C(=O)Nc1cc(Cl)cc(Cl)c1)C2=O` (some centres undefined) returned a melting point of 112 to 114 °C.

The compound `CCc1ccc(C(O)COc2ccc(C=O)cc2)nc1` (centres undefined) had a melting point of 80 °C.

For `COC1C(Oc2ccc(N)cc2)OC(CO)C(OC2OC(CO)C(O)C(OC)C2O)C1O` (centres undefined), the melting point came out at 105 °C.

In turn, `Nc1cccc2c1CN(C(CCC(=O)O)C(=O)O)C2=O` (centres undefined) displayed a melting point of 183 to 185 °C.

`CCCC/C(=C\C=C\C(=O)Oc1ccc([N+](=O)[O-])cc1)c1cccc(OC)c1` showed a melting point of 81.5 to 83 °C.

As to `COc1cccc2c1C(=O)c1ccccc1C2(CC(=O)O)CC(=O)O`, the melting point is 239 to 243 °C.

`O=C(O)COc1cc(Cl)ccc1C(=O)NCc1cc(F)cc(C(F)(F)F)c1` registered a melting point of 160 to 162 °C.

For the compound `Cc1cc(-c2ncn3c(C(F)(F)F)cc(-c4ccc(C(F)(F)F)c(C)c4)nc23)ccn1`, the melting point came to 243 °C.

Compound `CCOc1ccc(Cc2cn(C3OC(COC(C)=O)C(OC(C)=O)C(OC(C)=O)C3OC(C)=O)c3cccc(Cl)c23)cc1` (centres undefined) gave a melting point of 166 to 169 °C.

Compound `COc1ccccc1CC(O)(c1ccccc1)C1CCN(CCCC(=O)c2ccc(C(C)(C)C)cc2)CC1` (centres undefined) gave a melting point of 118 to 120 °C.

Compound `Cc1nc2ccnn2c2c1CCN2Cc1ccccc1` returned a melting point of 130 °C.

Regarding `COC(=O)c1ccc(Cn2ncc3ccccc32)cc1`, the melting point was in the range of 89 to 90 °C.

For the compound `Cc1c(CC(=O)NC2CCN(Cc3ccc(Cl)c(Cl)c3)CC2)cnn1-c1ccccc1`, the melting point amounted to 165 °C.

The compound `Cc1nc(O)c(-c2ccc(S(C)(=O)=O)cc2)s1` yielded a melting point of 216 to 226 °C.

`Nc1c(Cl)c(C(=O)O)nc(Cl)c1Br` yielded a melting point of 201 to 202 °C.

The compound `Cc1ccc(N2C(=O)C(O)=C(C(=O)c3ccc(OC(F)(F)F)cc3)C2c2ccc(Cn3nccn3)cc2)nn1` (centres undefined) had a melting point of 277 °C.
